This note sets out measurements from patent US9790169B2, “IDO inhibitors” (BRISTOL-MYERS SQUIBB COMPANY, priority 2015, dated 2017).

Sequence of human IDO1 (P14902 whole entry): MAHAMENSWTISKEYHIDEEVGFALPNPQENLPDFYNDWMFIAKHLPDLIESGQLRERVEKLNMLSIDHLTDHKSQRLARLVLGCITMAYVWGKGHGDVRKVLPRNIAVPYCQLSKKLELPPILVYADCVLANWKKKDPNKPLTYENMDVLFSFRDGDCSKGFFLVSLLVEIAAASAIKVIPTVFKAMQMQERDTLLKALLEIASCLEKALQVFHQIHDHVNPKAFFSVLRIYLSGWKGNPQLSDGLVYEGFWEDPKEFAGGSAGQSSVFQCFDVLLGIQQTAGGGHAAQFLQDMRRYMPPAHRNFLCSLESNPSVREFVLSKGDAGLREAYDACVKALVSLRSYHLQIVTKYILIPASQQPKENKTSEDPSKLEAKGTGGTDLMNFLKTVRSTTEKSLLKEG

The experiment concerns the target human IDO1 (Homo sapiens, UniProt P14902). The experiment is described as follows: Assessment of human IDO-1 inhibitory activity in HEK cells (human IDO1/HEK293 cells, kynurenine read-out with Ehrlich reagent, absorbance 490 nm). In kind it is cell-based. On the set-up: expressed in transfected cells. The settings on record: HEK Human IDO-1 cellular assay. The procedure, abridged:
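HEK293 cells stably expressing human IDO1 were seeded at 10,000 per well in phenol red-free RPMI with 10% FBS, treated with compound for 20 h at 37 °C. Kynurenine was measured after TCA (0.2% final) and 30 min at 50 °C, using Ehrlich reagent, A490. IC50 normalised to DMSO (0%) and 500 nM reference standard (100%).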
`COCC(CC(=O)O)c1cc(F)c(N(CC(C)C)CC(C)C)c(NC(=O)Cc2ccc(C)cc2)c1` (single isomer, unassigned) [Example 1177, 3-(4-(Diisobutylamino)-3-fluoro-5-(2-(p-tolyl)acetamido)phenyl)-4-methoxybutanoic acid]: the half-inhibitory concentration (IC50) was less than 50 nM.

For `CC[C@H](CC(=O)O)c1ccc(N(CC2CC2)CC(C)(C)O)c(Nc2ccc(Cl)cc2)c1` (single isomer, unassigned) [Example 271], the IC50 was less than 5 nM.

For `CC[C@H](CC(=O)O)c1ccc(N(CC(C)C)C2CCS(=O)(=O)CC2)c(NC(=O)Nc2ccc(C)cc2)c1` (single isomer, unassigned) [Example 209], the half-maximal inhibitory concentration (IC50) is more than 50 nM.

Turning to `CCC(CC(=O)O)c1cc(NC(=O)Nc2cnc(C)nc2)c(N(CC(C)C)C2CCCCC2)cc1F` (single isomer, unassigned) [Example 1126, 3-(4-(Cyclohexyl(isobutyl)amino)-2-fluoro-5-(3-(2-methylpyrimidin-5-yl)ureido)phenyl)pentanoic acid], the half-maximal inhibitory concentration (IC50) is less than 5 nM.

With `COCC(CC(=O)O)c1ccc(N(CC(C)C)CC(C)C)c(NC(=O)Nc2cc(C)on2)c1` (single isomer, unassigned) [999-1], the IC50 is less than 50 nM.

As to `CC[C@@H](CC(=O)O)c1ccc(N(CC(C)(C)O)C2CCOCC2)c(Nc2ccc3c(c2)OC(F)(F)O3)c1` (single isomer, unassigned) [Example 199], the half-maximal inhibitory concentration (IC50) is less than 5 nM.

With `COCC(CC(=O)O)c1cc(F)c(N(CC(C)C)C2CCCCC2)c(NC(=O)Nc2ccc(C)cc2)c1` (single isomer, unassigned) [Example 1155, 3-(4-(cyclohexyl(isobutyl)amino)-3-fluoro-5-(3-(p-tolyl)ureido)phenyl)-4-methoxybutanoic acid], the IC50 was less than 5 nM.

Consider `COCC(CC(=O)O)c1cc(F)c(N(CC(C)C)C2CCCCC2)c(NC(=O)Nc2ccc(OC(F)(F)F)cc2)c1` (single isomer, unassigned) [Example 1154, 3-(4-(cyclohexyl(isobutyl)amino)-3-fluoro-5-(3-(4-(trifluoromethoxy)phenyl)ureido)phenyl)-4-methoxybutanoic acid], for which the IC50 was less than 50 nM.

With `CCN(c1ccc([C@@H](COC)CC(=O)O)cc1NC(=O)Nc1ccc(OC(F)F)cc1)C1CCOCC1` (single isomer, unassigned) [Example 425], the IC50 is more than 50 nM.

Take `CC[C@H](CC(=O)O)c1ccc(N2CCOC[C@@H]2C(C)C)c(NC(=O)Nc2ccc(OC)cc2F)c1` (single isomer, unassigned) [Example 87]: the IC50 was more than 50 nM.

For the compound `COCC(CC(=O)O)c1ccc(N(CC(C)C)C2CCCCC2)c(NC(=O)Nc2ccc(OC(F)(F)F)cc2)c1` (single isomer, unassigned) [Example 1243, 3-(4-(Cyclohexyl(isobutyl)amino)-3-(3-(4-(trifluoromethoxy)phenyl)ureido)phenyl)-4-methoxybutanoic acid], the concentration for half-maximal inhibition (IC50) was less than 50 nM.

With `CCc1ccc(Nc2cc([C@@H](CC)CC(=O)O)ccc2N(CC)C2CCCCC2)cc1` (single isomer, unassigned) [Example 282], the IC50 was less than 5 nM.

On to `CC[C@@H](CC(=O)O)c1ccc(N2C[C@@H](C)O[C@@H](C)C2)c(NC(=O)Nc2ccc(C)cc2)c1` (single isomer, unassigned) [Example 754], for which the half-maximal inhibitory concentration (IC50) was more than 50 nM.

Regarding `CCN(c1ccc([C@@H](COC)CC(=O)O)cc1Nc1ccc2nc(C)sc2c1)C1CCOCC1` (single isomer, unassigned) [Example 377], the IC50 is less than 50 nM.

On to `CC(CC(=O)O)c1ccc(N2C[C@@H](C)O[C@@H](C)C2)c(Nc2ccc(Cl)cc2)c1` (single isomer, unassigned) [Example 739], for which the IC50 was more than 50 nM.

On to `CC[C@@H](CC(=O)O)c1ccc(N(CC)C2CCOCC2)c(Nc2ccn3nc(C)c(F)c3c2)c1` (single isomer, unassigned) [Example 470], for which the 50% inhibitory concentration (IC50) was less than 50 nM.

Regarding `CCC(CC(=O)O)c1cc(F)c(N(CC(C)C)CC(C)C)c(NC(=O)Nc2ccccc2Cl)c1` (racemic) [Example 975, (+/−)-3-(3-(3-(2-chlorophenyl)ureido)-4-(diisobutylamino)-5-fluorophenyl)pentanoic acid], the IC50 is less than 50 nM.

In the case of `CCOc1ccc(NC(=O)Nc2cc(C(CC)CC(=O)O)ccc2N2CCC[C@H]2C(C)(C)O)cc1` (single isomer, unassigned) [Example 826], the IC50 was more than 50 nM.

Consider `CCOc1ccc(NC(=O)Nc2cc(C(C)(C)CC(=O)O)ccc2N(CC)C2CCOCC2)cc1` [Example 166, 3-(3-(3-(4-Ethoxyphenyl)ureido)-4-(ethyl(tetrahydro-2H-pyran-4-yl)amino)phenyl)-3-methylbutanoic acid], for which the IC50 is more than 50 nM.

With “3-(4-(isobutyl(tetrahydro-2H-pyran-4-yl)amino)-3-(3-(4-phenoxyphenyl)ureido)phenyl)butanoic acid [Example 959]”, the IC50 was less than 5 nM.

Take `CC[C@H](CC(=O)O)c1ccc(N2CCC[C@@H]2C(C)(C)O)c(Nc2cnc(OCC3CC3)nc2)c1` (single isomer, unassigned) [Example 842]: the IC50 was more than 50 nM.

As to `CC[C@H](CC(=O)O)c1ccc(N(CC(C)(C)O)C2CCOCC2)c(Nc2ccc(Cl)c(OCC(F)(F)F)c2)c1` (single isomer, unassigned) [Example 205], the IC50 is less than 50 nM.

Turning to `Cc1ccc(CC(=O)Nc2cc(C(C)CC(=O)O)ccc2N(CC(C)C)CC(C)C)cc1` (single isomer, unassigned) [Example 954, 3-(4-(Diisobutylamino)-3-(2-(p-tolyl)acetamido)phenyl)butanoic acid], the IC50 was less than 50 nM.

Consider `CC[C@@H](CC(=O)O)c1ccc(N2CCOC[C@@H]2C(C)C)c(NC(=O)Nc2ccc(Cl)cc2F)c1` (single isomer, unassigned) [Example 75], for which the IC50 is less than 50 nM.

With `CCOc1ncc(Nc2cc(C(C)(C)CC(=O)O)ccc2N2C[C@@H](C)O[C@@H](C)C2)cn1` [Example 736, 3-(4-((2S,6R)-2,6-dimethylmorpholino)-3-((2-ethoxypyrimidin-5-yl)amino)phenyl)-3-methylbutanoic acid], the concentration for half-maximal inhibition (IC50) was more than 50 nM.

For the compound `COCC(CC(=O)O)c1ccc(N(CC2CC2)C2CCOCC2)c(Nc2ccc3nc(C)sc3c2)c1` (single isomer, unassigned) [Example 689, 3-(4-((cyclopropylmethyl) (tetrahydro-2H-pyran-4-yl)amino)-3-((2-methylbenzo[d]thiazol-6-yl)amino)phenyl)-4-methoxybutanoic acid], the half-maximal inhibitory concentration (IC50) was more than 50 nM.

Consider `CC[C@@H](CC(=O)O)c1ccc(N(CC)C2CCOCC2)c(NC(=O)Nc2ccc(OC)cc2)c1` (single isomer, unassigned) [Example 492], for which the IC50 is less than 50 nM.

With `COc1ncc(Nc2cc(C(C)CC(=O)O)ccc2N2CCC[C@H]2C(C)(C)O)cn1` (single isomer, unassigned) [Example 801], the IC50 was more than 50 nM.

On to `COCC(CC(=O)O)c1cc(F)c(N(CC(C)C)C2CCCCC2)c(NC(=O)Nc2ccc(OC)cc2F)c1` (stereo not drawn) [Example 1159, 3-(4-(cyclohexyl(isobutyl)amino)-3-fluoro-5-(3-(2-fluoro-4-methoxyphenyl)ureido)phenyl)-4-methoxybutanoic acid], for which the IC50 is less than 5 nM.

Consider `CCC(CC(=O)O)c1ccc(N(CC2CC2)C2CCOCC2)c(Nc2ccc(C#N)cc2)c1` (single isomer, unassigned) [Example 706, 3-(3-((4-cyanophenyl)amino)-4-((cyclopropylmethyl) (tetrahydro-2H-pyran-4-yl)amino)phenyl)pentanoic acid], for which the concentration for half-maximal inhibition (IC50) is less than 5 nM.

Consider `CC[C@H](CC(=O)O)c1ccc(N2CCC[C@H]2C(C)(C)F)c(NC(=O)Nc2ccc(Cl)cc2F)c1` (single isomer, unassigned) [Example 791], for which the IC50 was less than 50 nM.

`CC[C@H](CC(=O)O)c1ccc(N(CC(C)C)C2CCS(=O)(=O)CC2)c(Nc2ccc3sc(C)nc3c2)c1` [Example 214, 3-(4-((1,1-Dioxidotetrahydro-2H-thiopyran-4-yl)(isobutyl)amino)-3-((2-methylbenzo[d]thiazol-5-yl)amino)phenyl)pentanoic acid]: the half-inhibitory concentration (IC50) was less than 50 nM.

`CCC(CC(=O)O)c1ccc(N(CC(C)C)C2CCCCC2)c(Nc2cnc(OC(C)C)nc2)c1` (single isomer, unassigned) [Example 648, 3-(4-(cyclohexyl(isobutyl)amino)-3-((2-isopropoxypyrimidin-5-yl)amino)phenyl)pentanoic acid]: the IC50 is less than 5 nM.

With `CCC(CC(=O)O)c1ccc(N2CCC[C@H]2C(C)(C)O)c(Nc2ccc(Cl)cc2)c1` (single isomer, unassigned) [Example 820], the 50% inhibitory concentration (IC50) was less than 5 nM.

Turning to `CC[C@@H](CC(=O)O)c1ccc(N(CC)C2CCOCC2)c(NC(=O)Nc2ccc(OC)cc2F)c1` (single isomer, unassigned) [Example 493], the 50% inhibitory concentration (IC50) is more than 50 nM.

Regarding `CCOc1ccc(NC(=O)Nc2cc(C(COC)CC(=O)O)ccc2N(CC(C)C)C2CCCCC2)cc1` (single isomer, unassigned) [Example 1235, 3-(4-(Cyclohexyl(isobutyl)amino)-3-(3-(4-ethoxyphenyl)ureido)phenyl)-4-methoxybutanoic acid], the concentration for half-maximal inhibition (IC50) was less than 5 nM.

Consider `CCCN(c1ccc([C@@H](COC)CC(=O)O)cc1Nc1cnc(OCC2CC2)nc1)C1CCOCC1` (single isomer, unassigned) [Example 563], for which the IC50 was less than 50 nM.

Turning to `CCC(CC(=O)O)c1cc(NC(=O)Nc2cc(C)no2)c(N(CC(C)C)C2CCCCC2)cc1F` (single isomer, unassigned) [Example 1114, 3-(4-(Cyclohexyl(isobutyl)amino)-2-fluoro-5-(3-(3-methylisoxazol-5-yl)ureido)phenyl)pentanoic acid], the 50% inhibitory concentration (IC50) is less than 5 nM.

`CCCN(c1ccc([C@@H](COC)CC(=O)O)cc1Nc1ccc2c(c1)OC(F)(F)O2)C1CCOCC1` (single isomer, unassigned) [Example 561]: the IC50 is more than 50 nM.
